According to patent publication US9708301B2, “Crystalline forms of afatinib monomaleate, preparation methods and pharmaceutical compositions thereof” (priority 2015, dated 2017):
Values belong to the molecule of their own block, whether it stands above or below them.

What was measured:
Type in all cases: physicochemical
[1] = Solubility in pure water (water added progressively until the sample completely dissolved); conditions: 25° C. (room temperature)
Method: Take 5 mg of the crystalline form of Afatinib dimaleate in the prior art prepared in preparation example 1 and the crystalline Form N of Afatinib monomaleate prepared in example 1 as the sample respectively, pure water was added into each sample progressively at 25° C. until the sample completely dissolved, then calculate the solubility of the sample according to the weight of the sample and water.

[2] = Dynamic vapour sorption (DVS) isothermal adsorption; conditions: relative humidity 10%-80%
Method: Dynamic vapour sorption (DVS) data is collected using TA Instruments Q5000 TGA, the instrument control software is Thermal Advantage and the analytical software is Universal Analysis. Usually, 1-10 mg of the specimen is placed in a platinum pan, weight changes of the specimen are recorded by TA software within the process of the relative humidity change from 10% to 80% to 10%. Depending on specific situations, different sorption and desorption procedures may be used. An isothermal adsorption curve can be generated by the procession of software.

[3] = Hygroscopicity of prior-art forms (researches by the present inventors)

solubility ([1]; listed as crystalline form of Afatinib dimaleate in the prior art): 7.5 mg/mL
weight change of the salt within the relative humidity range of 10%-80% ([2]; listed as Preparation Example 1): 2.6%
Compound: CN(C)C/C=C/C(=O)Nc1cc2c(Nc3ccc(F)c(Cl)c3)ncnc2cc1O[C@H]1CCOC1 [Afatinib dimaleate]

solubility ([1]; listed as crystalline Form N of Afatinib monomaleate): 126.9 mg/mL
weight change of the salt within the relative humidity range of 10%-80% ([2]; listed as Example 1): 2.1%
Compound: CN(C)C/C=C/C(=O)Nc1cc2c(Nc3ccc(F)c(Cl)c3)ncnc2cc1O[C@H]1CCOC1 [Afatinib monomaleate]

hygroscopicity [3]: serious hygroscopicity issues
Compound: CN(C)C/C=C/C(=O)Nc1cc2c(Nc3ccc(F)c(Cl)c3)ncnc2cc1O[C@H]1CCOC1 [Form B of Afatinib dimaleate, Afatinib dimaleate]
